Results from ChEMBL document CHEMBL4627340, “Design, synthesis, and biological activity of new endomorphin analogs with multi-site modifications” (Bioorg Med Chem, 2020).

What was measured:
[1] = Half life in Kunming mouse brain homogenate at 10^-2 mol/L by RP-HPLC analysis; type: ADME, tissue-based
[2] = Half life in Kunming mouse serum at 10^-2 mol/L by RP-HPLC analysis; type: ADME, cell-free
Mus musculus [3] = experiment: Antinociceptive activity in kunming mouse models assessed as effective dose after icv administration measured from 5 to 60 mins by warm water tail-flick assay; type: functional
Mu-type opioid receptor [4] = molecular target: T1, Mu-type opioid receptor (Homo sapiens, UniProt P35372); experiment: Agonist activity at mu opioid receptor (unknown origin) expressed in human HEK293 cells assessed as […] in cAMP accumulation using [3H]-cAMP as substrate measured after 30mins by liquid scintillation counting method relative to control; type: functional, cell-based
T1 sequence (P35372 whole entry): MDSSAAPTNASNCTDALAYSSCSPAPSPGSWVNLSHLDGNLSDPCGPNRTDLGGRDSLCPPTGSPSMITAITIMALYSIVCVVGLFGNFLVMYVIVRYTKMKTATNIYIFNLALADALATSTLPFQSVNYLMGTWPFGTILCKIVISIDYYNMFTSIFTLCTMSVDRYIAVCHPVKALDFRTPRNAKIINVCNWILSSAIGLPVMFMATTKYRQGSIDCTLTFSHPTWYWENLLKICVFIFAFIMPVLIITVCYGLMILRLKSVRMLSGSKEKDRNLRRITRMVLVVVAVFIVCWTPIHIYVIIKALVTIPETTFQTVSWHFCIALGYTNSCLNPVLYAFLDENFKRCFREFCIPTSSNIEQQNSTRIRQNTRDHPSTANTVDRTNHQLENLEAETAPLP

Mus musculus [5] = experiment: Antinociceptive activity in kunming mouse models assessed as maximum possible effect at 4 nmol, icv measured from 5 to 60 mins by warm water tail-flick assay relative to control; type: functional
Mu-type opioid receptor [6] = molecular target: Mu-type opioid receptor (Rattus norvegicus, UniProt P33535); experiment: Displacement of [3H]-DAMGO from Wistar rat mu opioid receptor incubated for 1 hr by liquid scintillation counting method
Chain of Mu-type opioid receptor (Rattus norvegicus, UniProt P33535) (P33535 whole entry): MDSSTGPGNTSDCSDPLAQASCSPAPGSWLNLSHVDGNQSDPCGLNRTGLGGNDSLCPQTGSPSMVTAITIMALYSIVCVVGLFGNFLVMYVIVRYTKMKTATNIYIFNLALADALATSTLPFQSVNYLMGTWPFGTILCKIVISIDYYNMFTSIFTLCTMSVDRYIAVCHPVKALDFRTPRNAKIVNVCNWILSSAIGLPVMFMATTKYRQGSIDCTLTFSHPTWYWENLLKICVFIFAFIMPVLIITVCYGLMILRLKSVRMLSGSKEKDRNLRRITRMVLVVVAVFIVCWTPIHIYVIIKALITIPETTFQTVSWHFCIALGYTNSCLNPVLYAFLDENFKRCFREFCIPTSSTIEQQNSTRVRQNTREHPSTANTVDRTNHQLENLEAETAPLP

[7] = molecular target: Delta-type opioid receptor (Rattus norvegicus, UniProt P33533); experiment: Displacement of [3H]-DPDPE from Wistar rat delta opioid receptor incubated for 3 hrs by liquid scintillation counting method
Chain of Delta-type opioid receptor (P33533 whole entry): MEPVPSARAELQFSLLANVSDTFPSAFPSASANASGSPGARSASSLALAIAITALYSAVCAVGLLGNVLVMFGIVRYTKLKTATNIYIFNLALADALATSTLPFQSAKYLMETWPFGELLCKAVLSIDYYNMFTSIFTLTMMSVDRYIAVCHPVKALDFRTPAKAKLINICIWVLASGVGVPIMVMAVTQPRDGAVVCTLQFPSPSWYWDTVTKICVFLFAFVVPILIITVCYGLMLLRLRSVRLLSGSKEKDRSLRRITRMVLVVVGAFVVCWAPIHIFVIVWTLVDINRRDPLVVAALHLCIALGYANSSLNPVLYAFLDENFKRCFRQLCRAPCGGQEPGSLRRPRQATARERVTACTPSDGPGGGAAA

Mu-type opioid receptor [8] = molecular target: T1, Mu-type opioid receptor; experiment: Agonist activity at mu opioid receptor (unknown origin) expressed in human HEK293 cells assessed as […] in cAMP accumulation using [3H]-cAMP as substrate measured after 30mins by liquid scintillation counting method; type: functional, cell-based
Mus musculus [9] = experiment: Antinociceptive activity in kunming mouse models assessed as maximum possible effect at 0.4 nmol, icv measured from 5 to 60 mins by warm water tail-flick assay relative to control; type: functional
Mus musculus [10] = experiment: Antinociceptive activity in kunming mouse models assessed as maximum possible effect at 3 mg/kg, iv measured after 5 to 60 mins by warm water tail-flick assay; type: functional

Row | SMILES | half-life [1] | half-life [2] | ED50 (Mus musculus [3]) | Emax (Mu-type opioid receptor [4]) | Activity (Mus musculus [5]) | Ki (Mu-type opioid receptor [6]) | Ki [7] | EC50 (Mu-type opioid receptor [8]) | MPE (Mus musculus [9]) | MPE (Mus musculus [10])
1 | NC(=O)[C@H](Cc1ccccc1)NC(=O)[C@H](Cc1ccccc1)NC(=O)[C@@H]1CCCN1C(=O)[C@@H](N)Cc1ccc(O)cc1 [ENDOMORPHIN 2] | 12.4 min | 12.7 min | 0.96 nmol | 66.5% | 100% | – | – | – | – | –
2 | C=C(C(N)=O)[C@@H](NC(=O)[C@H](Cc1c[nH]c2ccccc12)NC(=O)[C@@H](CNC(C)=O)NC(=O)[C@@H](N)Cc1ccc(O)cc1)c1ccco1 | – | – | – | 73.2% | – | 4.54 nM | > 10000 nM | 272 nM | – | –
3 | NC(=O)[C@H](Cc1ccccc1)NC(=O)[C@H](Cc1c[nH]c2ccccc12)NC(=O)[C@@H]1CCCN1C(=O)[C@@H](N)Cc1ccc(O)cc1 [ENDOMORPHIN-1] | – | – | – | – | 100% | – | – | – | 42.1% | –
4 | C=C(C(N)=O)[C@@H](NC(=O)[C@H](Cc1c[nH]c2ccccc12)NC(=O)[C@@H](CCCCNC(C)=O)NC(=O)[C@@H](N)Cc1ccc(O)cc1)c1ccco1 | – | – | – | 37.5% | – | 9.21 nM | 3580 nM | 934 nM | – | –
5 | C=C(C(N)=O)[C@@H](NC(=O)[C@H](Cc1ccccc1)NC(=O)[C@@H](CN)NC(=O)[C@@H](N)Cc1ccc(O)cc1)c1ccco1 | – | – | – | 62.3% | – | 53 nM | > 10000 nM | 1500 nM | – | –
6 | C=C(C(N)=O)[C@@H](NC(=O)[C@H](Cc1ccccc1)NC(=O)[C@@H](CNC(C)=O)NC(=O)[C@@H](N)Cc1ccc(O)cc1)c1ccco1 | – | – | – | 78.2% | – | 22.4 nM | > 10000 nM | 1360 nM | – | –
7 | CN1CC[C@]23c4c5ccc(O)c4O[C@H]2[C@@H](O)C=C[C@H]3[C@H]1C5 [MORPHINE] | – | – | – | – | – | – | – | – | – | 53.6%
8 | C=C(C(N)=O)[C@@H](NC(=O)[C@H](Cc1c[nH]c2ccccc12)NC(=O)[C@@H](CCN)NC(=O)[C@@H](N)Cc1ccc(O)cc1)c1ccco1 | – | – | – | 75.5% | – | 32.4 nM | > 10000 nM | 161 nM | – | –
9 | C=C(C(N)=O)[C@@H](NC(=O)[C@H](Cc1c[nH]c2ccccc12)NC(=O)[C@@H](CCC)NC(=O)[C@@H](N)Cc1ccc(O)cc1)c1ccco1 | – | – | – | 67.6% | – | 34.4 nM | 2660 nM | 337 nM | – | –
